Measured values reported in ChEMBL document CHEMBL5038666, “Discovery of DNA-Targeting HDAC Inhibitors with Potent Antitumor Efficacy In Vivo That Trigger Antitumor Immunity” (J Med Chem, 2022).
The source made the active and inactive calls. The calls are words filed in the database; no cut-off is given here.

Tests used:
KG-1 [1] = test: Downregulation of SPT16 expression in human KG-1 cells assessed as chromatin damage at 0.5 to […] measured after 24 hrs by Western blot analysis; assay type: functional, cell-based; conditions: dose 0.5-2.5 µM
Calf thymus DNA = test: Binding affinity to calf thymus DNA assessed as change in entropy at 500 microM by isothermal titration calorimetric analysis; assay type: nucleic-acid assay; conditions: Bos taurus
KG-1 [2] = test: Induction of apoptosis in human KG-1 cells measured after 24 hrs by Annexin V-FITC/propidium iodide staining based flow cytometry analysis; assay type: functional, cell-based; conditions: dose 0.5-1 µM
KG-1 [3] = test: Potency index, ratio of SAHA IC50 to test compound IC50 for antiproliferative activity against human KG1 cells assessed as inhibition of cell growth measured after 48 hrs by MTT assay; assay type: functional
KG-1 [4] = test: Induction of apoptosis in human KG-1 cells assessed as total apoptotic cells at 1 uM measured after 24 hrs by Annexin V-FITC/propidium iodide staining based flow cytometry analysis relative to control; assay type: functional

O=C(CCCCCCOc1cccc(-c2nc3ccccc3[nH]2)c1)NO
Activity (KG-1 [1]): Active | -TdeltaS (Calf thymus DNA): 74 kcal/mol | Activity (KG-1 [2]): Dose-Dependent Effect | fold change (FC) (KG-1 [3]): 50 | Activity (KG-1 [4]): 56.9%
